Data published in paper PMC3652012 (Neuropharmacology, 2012).
Like-named read-outs stand apart in the source and are kept apart here.

Experiments:
[1] = tested on: GABAA receptor-mediated IPSCs in dentate granule cells; test: Whole-cell recording of evoked monosynaptic IPSCs in hippocampal slices; assay type: cell-based, rat; conditions: n=5; for 50% decay time of evoked IPSC: relative to control before drug; for amplitude of evoked IPSC: relative to control, p>0.05
[2] = tested on: extra-synaptic GABAA receptors in dentate granule neurons; assay type: cell-based, rat; conditions: CNQX, D-APV, TTX present
[3] = tested on: mIPSCs in dentate granule neurons; assay type: cell-based, rat; conditions: 1 μM TTX
[4] = target: α1(Q240W)β3γ2 GABAA receptors (Rattus norvegicus, UniProt P18508+P62813+P63079, Q268W); test: Whole-cell patch clamp, point-mutated receptor; assay type: cell-based; conditions: compared to wild-type α1β3γ2
[5] = target: α1β3(M286W)γ2 GABAA receptors (Rattus norvegicus, UniProt P18508+P62813+P63079, M311W); test: Whole-cell patch clamp, point-mutated receptor; assay type: cell-based; conditions: compared to wild-type α1β3γ2
[6] = target: α1β3(Y442W)γ2 GABAA receptors (Rattus norvegicus, UniProt P18508+P62813+P63079, Y467W); assay type: cell-based; conditions: compared to wild-type α1β3γ2
[7] = target: α1(S269I)β3γ2 GABAA receptors (Rattus norvegicus, UniProt P18508+P62813+P63079, S296I); test: Whole-cell patch clamp, point-mutated receptor; assay type: cell-based; conditions: compared to wild-type α1β3γ2
[8] = target: α1(Y410W)β3γ2 GABAA receptors (Rattus norvegicus, UniProt P18508+P62813+P63079, Y437W); test: Whole-cell patch clamp, point-mutated receptor; assay type: cell-based; conditions: compared to wild-type α1β3γ2
[9] = target: α1(T260F)β3γ2 GABAA receptors (Rattus norvegicus, UniProt P18508+P62813+P63079, T287F); test: Whole-cell patch clamp, point-mutated receptor; assay type: cell-based; conditions: compared to wild-type α1β3γ2
[10] = target: α1β3(T256F)γ2 GABAA receptors (Rattus norvegicus, UniProt P18508+P62813+P63079, T281F); test: Whole-cell patch clamp, point-mutated receptor; assay type: cell-based; conditions: compared to wild-type α1β3γ2
GABAA receptors = test: Direct activation of GABAA receptors in the absence of GABA; assay type: cell-based
[11] = target: T1, recombinant α1β3γ2 GABAA receptors (Rattus norvegicus, UniProt P18508+P62813+P63079); test: Whole-cell patch clamp of transfected HEK-293T cells; conditions: for effect on peak amplitude of the response to saturating GABA: 10 μM modulator with 1 mM GABA, whole-cell; for effect on peak amplitude of the response to saturating GABA / maximum enhancement of the GABA response: −50 mV; for maximum enhancement of the GABA response: co-applied 5 sec with EC5–10 GABA (1 μM), response to GABA alone = 100%
[12] = target: recombinant α1β3δ GABAA receptors (Rattus norvegicus, UniProt P18506+P62813+P63079); test: as above; conditions: for effect on peak response to saturating GABA: 10 μM modulator with 1 mM GABA, whole-cell, −50 mV
[13] = target: recombinant α4β3δ GABAA receptors (Rattus norvegicus, UniProt P18506+P28471+P63079); test: as above; conditions: 10 μM co-applied with EC5–10 GABA
[14] = target: recombinant α1β3 GABAA receptors (Rattus norvegicus, UniProt P62813+P63079); test: as above; conditions: 10 μM co-applied with EC5–10 GABA
[15] = tested on: recombinant GABAA receptors: six α subtypes with β3 and γ2, three β subtypes with α1 and γ2, three γ subtypes with α1 and β3; test: Whole-cell patch clamp, receptors with varying α, β or γ subtype; conditions: 10 μM co-applied with EC5–10 GABA for each isoform
[16] = target: T1, recombinant α1β3γ2 GABAA receptors; test: Outside-out macropatch recording, deactivation after brief GABA application; conditions: for increase of weighted mean deactivation rate / weighted mean deactivation rate in presence of modulator: 10 μM modulator co-applied with 1 mM GABA for 5 msec, −70 mV
[17] = honokiol (Fig 1: 30–60 μM), n=6
[18] = magnolol 30 μM (Fig 1: 30–60 μM), n=7

recombinant α1β3δ GABAA receptors, sequence (P62813 28-455): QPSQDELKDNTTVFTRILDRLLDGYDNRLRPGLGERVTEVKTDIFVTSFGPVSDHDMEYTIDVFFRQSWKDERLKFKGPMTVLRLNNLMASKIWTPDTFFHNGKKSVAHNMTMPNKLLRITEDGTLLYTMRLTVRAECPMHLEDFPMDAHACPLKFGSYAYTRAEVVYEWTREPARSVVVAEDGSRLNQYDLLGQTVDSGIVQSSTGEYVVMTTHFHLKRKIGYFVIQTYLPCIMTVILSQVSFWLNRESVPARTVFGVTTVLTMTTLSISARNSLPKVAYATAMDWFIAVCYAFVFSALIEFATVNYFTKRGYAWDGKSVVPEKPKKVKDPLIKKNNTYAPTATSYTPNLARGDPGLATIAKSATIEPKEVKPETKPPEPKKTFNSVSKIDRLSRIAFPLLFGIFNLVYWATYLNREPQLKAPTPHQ
recombinant α1β3δ GABAA receptors, sequence (P63079 26-473): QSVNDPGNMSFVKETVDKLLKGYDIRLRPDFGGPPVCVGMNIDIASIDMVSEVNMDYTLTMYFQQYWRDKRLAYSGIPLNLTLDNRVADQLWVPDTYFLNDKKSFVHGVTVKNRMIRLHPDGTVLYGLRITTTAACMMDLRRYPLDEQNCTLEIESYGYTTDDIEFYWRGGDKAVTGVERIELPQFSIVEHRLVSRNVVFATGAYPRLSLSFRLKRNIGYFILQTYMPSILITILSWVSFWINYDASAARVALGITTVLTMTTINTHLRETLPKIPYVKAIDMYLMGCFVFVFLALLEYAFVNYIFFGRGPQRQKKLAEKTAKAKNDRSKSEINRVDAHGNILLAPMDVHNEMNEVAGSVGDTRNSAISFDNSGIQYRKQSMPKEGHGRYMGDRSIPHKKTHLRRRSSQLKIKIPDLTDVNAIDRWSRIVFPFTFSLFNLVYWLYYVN
recombinant α1β3δ GABAA receptors, sequence (P18506 17-449 limits assumed): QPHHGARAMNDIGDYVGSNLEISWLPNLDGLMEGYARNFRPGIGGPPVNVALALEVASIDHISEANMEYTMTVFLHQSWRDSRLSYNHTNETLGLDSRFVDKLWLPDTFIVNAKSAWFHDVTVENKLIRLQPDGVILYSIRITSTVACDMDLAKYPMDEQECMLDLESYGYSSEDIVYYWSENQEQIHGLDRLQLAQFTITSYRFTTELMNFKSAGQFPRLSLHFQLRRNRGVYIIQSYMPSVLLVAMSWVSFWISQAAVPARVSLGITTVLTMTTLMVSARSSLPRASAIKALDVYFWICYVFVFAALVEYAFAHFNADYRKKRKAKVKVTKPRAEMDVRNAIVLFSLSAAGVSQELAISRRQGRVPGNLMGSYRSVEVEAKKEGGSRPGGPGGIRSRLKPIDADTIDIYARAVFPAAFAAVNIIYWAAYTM
T1 sequence (P62813 28-455): as the sequence (P62813 28-455) above
T1 sequence (P63079 26-473): as the sequence (P63079 26-473) above
T1 sequence (P18508 39-466): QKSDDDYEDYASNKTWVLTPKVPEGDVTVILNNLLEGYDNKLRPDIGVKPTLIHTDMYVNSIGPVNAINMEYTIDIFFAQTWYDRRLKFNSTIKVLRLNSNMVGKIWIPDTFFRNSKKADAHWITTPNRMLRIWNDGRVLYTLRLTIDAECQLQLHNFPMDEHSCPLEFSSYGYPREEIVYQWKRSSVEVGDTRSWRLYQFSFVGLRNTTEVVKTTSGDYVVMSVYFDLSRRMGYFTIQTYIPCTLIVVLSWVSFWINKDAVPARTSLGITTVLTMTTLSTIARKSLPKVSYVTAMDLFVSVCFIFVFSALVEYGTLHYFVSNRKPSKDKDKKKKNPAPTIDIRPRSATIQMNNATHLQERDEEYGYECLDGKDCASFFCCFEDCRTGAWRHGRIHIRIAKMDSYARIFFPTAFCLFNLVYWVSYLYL
α1(Q240W)β3γ2 GABAA receptors, sequence (P62813 28-455 Q268W): as the sequence (P62813 28-455) above, with Q241W counted along it
α1(Q240W)β3γ2 GABAA receptors, sequence (P63079 26-473): as the sequence (P63079 26-473) above
α1(Q240W)β3γ2 GABAA receptors, sequence (P18508 39-466): as the sequence (P18508 39-466) above
α1β3(M286W)γ2 GABAA receptors, sequence (P62813 28-455): as the sequence (P62813 28-455) above
α1β3(M286W)γ2 GABAA receptors, sequence (P63079 26-473 M311W): as the sequence (P63079 26-473) above, with M286W counted along it
α1β3(M286W)γ2 GABAA receptors, sequence (P18508 39-466): as the sequence (P18508 39-466) above
recombinant α1β3 GABAA receptors, sequence (P62813 28-455): as the sequence (P62813 28-455) above
recombinant α1β3 GABAA receptors, sequence (P63079 26-473): as the sequence (P63079 26-473) above
α1β3(T256F)γ2 GABAA receptors, sequence (P62813 28-455, stated change not applied): as the sequence (P62813 28-455) above
α1β3(T256F)γ2 GABAA receptors, sequence (P63079 26-473 T281F): as the sequence (P63079 26-473) above, with T256F counted along it
α1β3(T256F)γ2 GABAA receptors, sequence (P18508 39-466): as the sequence (P18508 39-466) above
α1β3(Y442W)γ2 GABAA receptors, sequence (P62813 28-455): as the sequence (P62813 28-455) above
α1β3(Y442W)γ2 GABAA receptors, sequence (P63079 26-473 Y467W): as the sequence (P63079 26-473) above, with Y442W counted along it
α1β3(Y442W)γ2 GABAA receptors, sequence (P18508 39-466): as the sequence (P18508 39-466) above
recombinant α4β3δ GABAA receptors, sequence (P28471 36-552): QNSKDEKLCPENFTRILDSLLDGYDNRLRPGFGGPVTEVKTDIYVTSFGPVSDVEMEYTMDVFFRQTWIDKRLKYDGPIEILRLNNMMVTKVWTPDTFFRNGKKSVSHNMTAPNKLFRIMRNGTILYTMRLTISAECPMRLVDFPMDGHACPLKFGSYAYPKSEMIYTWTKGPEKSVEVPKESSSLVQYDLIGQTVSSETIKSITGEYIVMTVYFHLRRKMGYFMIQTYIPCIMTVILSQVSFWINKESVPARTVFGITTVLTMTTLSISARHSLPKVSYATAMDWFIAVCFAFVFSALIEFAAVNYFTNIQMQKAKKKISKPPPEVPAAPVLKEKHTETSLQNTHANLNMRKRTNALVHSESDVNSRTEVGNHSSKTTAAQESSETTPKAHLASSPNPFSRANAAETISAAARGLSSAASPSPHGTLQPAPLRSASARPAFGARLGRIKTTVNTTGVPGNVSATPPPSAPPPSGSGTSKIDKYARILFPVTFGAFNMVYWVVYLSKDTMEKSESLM
recombinant α4β3δ GABAA receptors, sequence (P63079 26-473): as the sequence (P63079 26-473) above
recombinant α4β3δ GABAA receptors, sequence (P18506 17-449 limits assumed): as the sequence (P18506 17-449 limits assumed) above
α1(Y410W)β3γ2 GABAA receptors, sequence (P62813 28-455 Y437W): as the sequence (P62813 28-455) above, with Y410W counted along it
α1(Y410W)β3γ2 GABAA receptors, sequence (P63079 26-473): as the sequence (P63079 26-473) above
α1(Y410W)β3γ2 GABAA receptors, sequence (P18508 39-466): as the sequence (P18508 39-466) above
α1(S269I)β3γ2 GABAA receptors, sequence (P62813 28-455 S296I): as the sequence (P62813 28-455) above, with S269I counted along it
α1(S269I)β3γ2 GABAA receptors, sequence (P63079 26-473): as the sequence (P63079 26-473) above
α1(S269I)β3γ2 GABAA receptors, sequence (P18508 39-466): as the sequence (P18508 39-466) above
α1(T260F)β3γ2 GABAA receptors, sequence (P62813 28-455 T287F): as the sequence (P62813 28-455) above, with T260F counted along it
α1(T260F)β3γ2 GABAA receptors, sequence (P63079 26-473, stated change not applied): as the sequence (P63079 26-473) above
α1(T260F)β3γ2 GABAA receptors, sequence (P18508 39-466): as the sequence (P18508 39-466) above

| SMILES | impact of mutation on modulation [4] | impact of mutation on potentiation [5] | impact of mutation on potentiation [6] | impact of mutation on potentiation [7] | impact of mutation on potentiation [8] | impact of mutation on modulation [9] | impact of mutation on modulation [10] | concentration at which agonist activity (direct activation) was observed (GABAA receptors) | EC50 [11] | effect on peak amplitude of the response to saturating GABA [11] | maximum enhancement of the GABA response [11] | EC50 [12] | effect on peak response to saturating GABA [12] | enhancement of the GABA response [13] | response (potentiation) of receptors lacking γ or δ [14] | potentiation across receptor isoforms (α, β, γ subtype selectivity) [15] | increase of weighted mean deactivation rate [16] | weighted mean deactivation rate in presence of modulator [16] | further results |
| --- | --- | --- | --- | --- | --- | --- | --- | --- | --- | --- | --- | --- | --- | --- | --- | --- | --- | --- | --- |
| C=CCc1ccc(O)c(-c2ccc(O)c(CC=C)c2)c1 [honokiol, 3,5′-diallyl-4,2′-dihydroxybiphenyl] | no impact | retained wild-type potentiation | retained wild-type potentiation | retained wild-type potentiation | retained wild-type potentiation | neither of these mutations had any impact | neither of these mutations had any impact | above 10 μM | 1.17 ± 0.2 µM | no effect | 483.4±64.4% | 3.8 ± 0.41 µM | nearly doubled | large enhancement, similar to that of α1β3δ | responded to a level comparable to the γ-containing receptors | potentiated to a similar degree, with no apparent selectivity among the subtypes | 147.2% | 113.5 ± 21.0 ms | 50% decay time of evoked IPSC ([1]; honokiol 60 μM bath applied): 299.5±16.6%; amplitude of evoked IPSC ([1]; honokiol 60 μM bath applied): 113.3±25.0%; enhancement of tonic GABAergic current [2, 17]: 351.2±79.0%; mIPSC amplitude ([3]; honokiol (Fig 1: 30–60 μM)): not affected; mIPSC frequency [3, 17]: 378.9±46.8% |
| C=CCc1ccc(O)c(-c2cc(CC=C)ccc2O)c1 [magnolol, 5,5′-diallyl-2,2′-dihydroxybiphenyl] | no impact | retained wild-type potentiation | retained wild-type potentiation | retained wild-type potentiation | retained wild-type potentiation | neither of these mutations had any impact | neither of these mutations had any impact | above 10 μM | 1.24 ± 0.21 µM | no effect | 467.6±24.6% | 3.4 ± 0.7 µM | nearly doubled | large enhancement, similar to that of α1β3δ | responded to a level comparable to the γ-containing receptors | potentiated to a similar degree, with no apparent selectivity among the subtypes | 171.8% | 104.3 ± 16.2 ms | 50% decay time of evoked IPSC ([1]; magnolol 30 μM bath applied): 267.7±7.9%; amplitude of evoked IPSC ([1]; magnolol 30 μM bath applied): 105.7±11.2%; increase of tonic GABAergic current [2, 18]: 402.5±61.7%; mIPSC amplitude ([3]; magnolol 30 μM (Fig 1: 30–60 μM)): not affected; mIPSC frequency [3, 18]: 476.2±108.5%; % area of the slower deactivation component in presence of modulator ([16]; 10 μM co-applied with 1 mM GABA for 5 msec, GABA alone 31.5±5.0): 41.8±8.1%; slow τ of deactivation in presence of modulator ([16]; 10 μM co-applied with 1 mM GABA for 5 msec, GABA alone 161.1±29.6): 228.4 ± 41.3 ms |
